Literature values, collected in patent publication EP1568762A1, “Detergent tablet compositions and their manufacture” (UNILEVER N.V., priority 2004, dated 2005).
Where two headings read alike, the source gives them in different places.

[1] = other common materials, by contrast, at 20°C

Row | Water Solubility (g/100g) (highly water-soluble materials, grams of solid required to form a saturated solution in 100 grams of water at 20°C) | Structure (SMILES) | Water Solubility (g/100g) [1] [g/100g]
1 |  | O=BO[O-].[Na+] [Sodium perborate anhydrous] | 3.7
2 |  | O=P(O)(O)OP(=O)(O)OP(=O)(O)O [Sodium tripolyphosphate anhydrous] | 15
3 | >100 | NC(N)=O [Urea] | 
